Values of other authors as cited in patent US6440956B1, “Bicyclic polyaminoacid metal complexes, their process of preparation and their application in medical imaging” (Guerbet, priority 1999, dated 2002).

Conditions: ratio to commercial gadolinium chelates; from Inorganic Chemistry 36(14) 2992-3000 (1997) and Magn. Reson. Chem. 36, S200-208 (1998)

O=C([O-])CN1CCN(CC(=O)[O-])Cc2cccc(n2)CN(CC(=O)[O-])CC1.[Gd+3] [PCTA]
longitudinal relaxation r1 relative to that of the gadolinium chelates used as contrast agents in magnetic resonance imaging in man: ~2 times
